The source of these data is patent US20260101892A1, “METHOD TO INHIBIT PROLIFERATION OF A PHYTOPATHOGEN ON PLANTS AND COMPOSITIONS USED FOR THIS PURPOSE” (CYSBIO APS, priority 2022, published 2026).

Like-named read-outs stand apart in the source and are kept apart here. A value given as a limit tells only on which side of the number the result lay.

Data set [1] relates to European grapes (Vitis vinifera). In words: Phytotoxicity evaluation in the grapevine downy mildew trial.
Another data set has as its system Alternaria alternata. In words: Post-harvest preservation of capsicums. Particulars: capsicums sprayed twice, 10° C., followed 25 days, triplicate. It is filed as in vivo. The method, then:
(§1) To investigate if zosteric acid and/or coumaric acid can protect fruit and vegetables against post-harvest infection with different fungi, zosteric and coumaric acids fungicidal effect was tested in capsicums and lemons infected with Alternaria alternata and Penicillium digitatum, respectively. The tests were performed by acquiring the relevant fruit and vegetables from the local supermarket. Both fruit and vegetables were bought as organic produce to ensure a minimum of pesticides had already been applied. […] Each application treatment was performed in triplicate on three separate pieces of produce. After treatment, the produce was allowed to dry in a sterile laminar flow cabinet followed by a second round of application and drying. The produce was then inoculated with the relevant fungal spores using a grafting stick. […] The inoculated produce was subsequently placed in […] plastic bags to prevent contamination with other organisms and to prevent the produce from drying out due to air circulation in the incubator. The wrapped capsicums and lemons were placed at 10° C. and the fungal growth followed by measuring the diameter of the growth from the point of inoculation for 25 days.

For a further data set, the system named is Aspergillus niger. To be noted: Common mold; N/A (In vitro); Villa et al 2010; cited from earlier work.
In data set [2] the test system is late potato blight (Phytophtora infestans). Type of data set: in vivo, Phytophthora infestans. Particulars: for reduction of pest severity: 5% zosteric acid and 0.3 L/ha BREAK THRU, vs untreated control.
For a further data set, the system named is pyronophora graminea. Description: Seed dressing against barley stripe.
The test system of data set [3] is Colletotrichum lindemuthianum. To be noted: Bean anthracnose; crop Bean; Stanley 2002; cited from earlier work.
In the next data set the test system is Cercospora beticola. In words: Cercospora leaf spot disease in sugarbeet. Type of data set: in vivo. Particulars: crop Beta vulgaris vulg. altissima / sugarbeet.
A further data set deals with Penicillium citrinum. Particulars: Mold on citrus fruits; N/A (In vitro); Villa et al 2010; cited from earlier work.
In data set [4] the test system is Blumeria graminis f. sp. tritici. Description: Powdery mildew in wheat. Type of data set: in vivo. Particulars: crop Wheat.
In data set [5] the test system is downy mildew in grapevine (plasmopara viticola). Description: Downy mildew in grapevine, controlled environment trial, foliar spray.
Another data set deals with Puccinia striiformis. In words: Yellow rust in wheat, greenhouse trial, contact fungicide. Particulars: crop Wheat.
Data set [6] has as its system strawberries (Fragaria sp.). Description: Phytotoxicity evaluation in the strawberry powdery mildew trial. Particulars: at concentrations that control disease. It is filed as in vivo.
Data set [7] relates to powdery mildew (Podosphaera aphanis). In words: Powdery mildew in strawberries, controlled environment trial. To be noted: crop Strawberries.
Experimental: The efficacy was evaluated as % area of leaves that were infected with disease based on evaluation of 50 leaves from each plant. The evaluation was performed 30 days after the first treatment and 10 days after the last treatment.
Five different treatments were applied; 1) an untreated control, 2) zosteric acid at 3%, 3) zosteric acid at 6%, 4) zosteric acid at 9%, 5) Karma at 3 kg/ha. […] Four treatment applications were performed at day 0, 7, 14, and 21 respectively. Prior to each application the infection and phytotoxicity of the plants were evaluated and scored.
The subject of a further data set is Leptosphaeria maculans. In words: Blackleg disease in winter rape. It is filed as in vivo. To be noted: crop Brassica napus / winter rape.
The next data set concerns tilletia caries. Description: Seed dressing against common bunt of wheat.
The next data set deals with Septoria tritici. In words: Septoria leaf blotch. Type of data set: in vivo.
Another data set has as its system Penicillium digitatum. Description: Post-harvest preservation of lemons. Type of data set: in vivo. Here is the method:
as §1

For the next data set, the system named is Magnaporthe grisea. Particulars: Rice blast; crop Rice; Stanley 2002; cited from earlier work.
In the next data set the test system is Ustilago nuda. In words: Loose smut of barley. It is filed as in vivo. To be noted: crop Barley.
Data set [8] concerns potatoes (Solanum tuberosum, variety Venezia). In words: Phytotoxicity assessment in the potato blight climate chamber test. Type of data set: in vivo. To be noted: throughout the trials (0.1%, 1%, 5% zosteric acid). The method, then: The application was conducted with a Research Track Sprayer and three different concentrations of zosteric acid (0.1%, 1%, and 5%) were sprayed one day before pathogen inoculation and two different concentrations of zosteric acid (1% and 5%) were sprayed after inoculation as soon as the infection got visible. Plants were assessed for phytotoxicity and pest severity 0, 4, and 7 days after the curative application.

Experimental for Puccinia striiformis: A greenhouse trial was conducted to investigate if zosteric acid could be applied as a contact fungicide to control yellow rust in wheat. Wheat was sowed in one-liter pots, with five replicates per treatment. 14 days after sowing, plants were sprayed with 150 L/ha of 10% zosteric acid with 0.1% Tween. For reference, an untreated control, a treatment with 0.1% Tween, and a treatment with a currently used standard fungicide treatment for yellow rust was also included in the test. One day after spraying of the plants, they were inoculated with Puccinia striiformis which is the causative agent of yellow rust. Plants were assessed for attack with yellow rust 13, 19 and 21 days after infection with yellow rust.
Experimental for pyronophora graminea: (§2) To investigate if zosteric acid can be applied as a seed dressing agent to prevent different seed borne fungal infections, the ability of zosteric acid to prevent infection of wheat and barley with the common bunt of wheat caused by tilletia caries and barley stribe, caused by pyronophora graminea was tested.
(§3) To investigate if zosteric acid can be applied as a seed dressing agent to prevent different seed borne fungal infections, the ability of zosteric acid to prevent infection of wheat and barley with the common bunt of wheat caused by tilletia caries and barley stribe, caused by pyronophora graminea) was tested.
Experimental for tilletia caries: as §2, §3

As to `O=C(O)/C=C/c1ccc(O)cc1` [coumaric acid], the phytotoxicity in data set [1] (5% treatment, Example 9 trial) came to 23.5%. Further, the “time after inoculation until A. alternata growth was displayed” value in the data set on Alternaria alternata was 25 days.

In the case of `O=C(O)/C=C/c1ccc(OS(=O)(=O)O)cc1` [zosteric acid], the phytotoxicity is reported as under 0.5% in [1] (1% zosteric acid, scored 13 days after application); 7% in data set [1] (5% treatment, Example 9 trial); “start to be phytotoxic” in data set [1] (high concentrations (>2%), scored 13 days after application); “no phytotoxicity” in [6]. Further, the phytotoxic effects entry in [1] (at the effective concentration, scored 13 days after application) is recorded as “does not have significant phytotoxic effects”; in data set [8], “No phytotoxic effects were observed”. Also, the “zosteric acid effective (Yes/No)” value is “Yes” in the data set with Aspergillus niger; “highly effective and Yes” in data set [2] (Potato blight, crop Solanum tuberosum / potato); “Yes” in the data set with pyronophora graminea (Barley stripe, crop Barley); “Yes” in data set [3]; “not effective and No” in the data set with Cercospora beticola; “Yes” in the data set with Penicillium citrinum. For the same compound, the “zosteric acid effective (Yes/No)” value in [4] was “not effective and No”; in [5] (Downy mildew in wine, crop Vitis vinifera / European grape) it was “highly effective and Yes”; in the data set with Puccinia striiformis, “effective and Yes”; in data set [7], “Yes”; in the data set on Leptosphaeria maculans, “not effective and No”; with tilletia caries (Common bunt of wheat, crop Wheat), “good efficacy and Yes”. For the same compound, the “zosteric acid effective (Yes/No)” value in the data set on Septoria tritici is “not effective and No”; with Magnaporthe grisea, “Yes”; in the data set on Ustilago nuda, “no efficacy and No”. For the same compound, the “reduction of pest severity” value is 7.8% in [2] (0 days from the curative treatment), 7.3% in data set [2] (4 days from the curative treatment) and 6.6% in data set [2] (7 days from the curative treatment). The “reduction of percentage of infected plant ears compared to untreated control” value in the data set with pyronophora graminea (barley seeds treated with 0.1% zosteric acid), in the data set with pyronophora graminea (barley seeds treated with 1% zosteric acid), with tilletia caries (wheat seeds treated with 0.1% zosteric acid) and in the data set on tilletia caries (wheat seeds treated with 1% zosteric acid) was “more than 2 fold” throughout. The “efficacy compared with positive control Funguran Progress (copper)” value in [5] (Example 9 trial) is recorded as “comparable to the positive control Funguran Progress”. Also, in data set [5] (increasing doses of zosteric acid, scored 17 days after application), the “dose response of disease control” value was “clear dose response”. For the same compound, the “effect in combination with Redigo Pro” value in the data set on tilletia caries (protection against common bunt of wheat, seed dressing) is recorded as “strong synergistic effect”. Besides, the “time after inoculation until A. alternata growth was displayed” value with Alternaria alternata came out at 19 days. Besides, in the data set with Penicillium digitatum (lemons sprayed twice, 10° C., followed 25 days, triplicate), the “time after inoculation until P. digitatum growth was observed” value was determined as 19 days. Besides, in the data set with Penicillium digitatum (lemons, day 25, three replicates), the “replicates with P. digitatum growth at end of test period” value is “only a single replicate”.
